Measured values from PMC12456999, “Sulfonyl Homoserine Lactones Are Tunable Probes to Inhibit the Quorum Sensing Receptor RhlR and Reduce Swarming Motility in Pseudomonas aeruginosa” (ACS Infectious Diseases, 2025).
Like-named read-outs stand apart in the source and are kept apart here.

What was measured:
RhlR = molecular target: T1, RhlR (Pseudomonas aeruginosa, UniProt P54292); assay: E. coli (JLD271) RhlR reporter antagonism assay, in competition with BHL; type: cell-based; details: for max. RhlR inhibition (%): BHL at 10 μM set to 0%, media control set to 100%
T1 construct: expressed in transfected cells; host or cells: E. coli JLD271 (K-12 ΔlacX74 sdiA271::Cam) carrying pJN105-R2 (RhlR expression) and pSC11-rhlI (rhlI'-lacZ reporter)
T1 sequence (P54292 whole entry): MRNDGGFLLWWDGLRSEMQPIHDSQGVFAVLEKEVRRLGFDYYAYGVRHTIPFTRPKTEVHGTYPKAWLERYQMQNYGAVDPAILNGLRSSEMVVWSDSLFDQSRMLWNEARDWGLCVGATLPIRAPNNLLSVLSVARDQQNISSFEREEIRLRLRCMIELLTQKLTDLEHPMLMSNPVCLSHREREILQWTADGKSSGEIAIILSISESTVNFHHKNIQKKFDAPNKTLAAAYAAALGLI
Method: To start, the sulfonyl HLs were evaluated for their ability to antagonize RhlR using a previously described E. coli strain (JLD271) harboring a RhlR expression plasmid and a rhlI reporter plasmid. This E. coli reporter produces RhlR, and protein activity in the presence of an added small molecule can be measured via the production of β-galactosidase as quantified via luminescence (see Methods). Compounds were screened in competition against RhlR’s native ligand, BHL (at its EC50 value in this strain, 10 μM), over a range of concentrations to generate antagonism dose–response curves (see Supporting Information) and calculate IC50 values (listed in Table ). A small set of compounds was also screened for RhlR agonism in the E. coli reporter; the agonism assay format was identical to the antagonism assay, except no BHL was added.
RhlR activity in E. coli strain JLD271 (ΔsdiA) was measured via a β-galactosidase reporter (rhI-lacZ) using the Promega Beta-Glo Assay System as previously described. RhlR activity in P. aeruginosa PA14 (ΔrhlIΔlasI) was measured via a GFP reporter (rhlA-gfp). […] See Supporting Information for both reporter protocols.
Supporting Information — Aguirre-Figueroa et al.
E. coli and P. aeruginosa RhlR reporter assay protocols.
E. coli RhlR reporter assay. RhlR activity in E. coli strain JLD271 (ΔsdiA) was measured via a β-galactosidase reporter using the Promega Beta-Glo® Assay System as previously described.10 A schematic of the reporter plasmids and assay protocol is shown in Scheme S1. Briefly, a single colony of E. coli JLD271 harboring the RhlR expression plasmid pJN105-R and the rhlI-lacZ transcriptional fusion reporter pSC11-R (Table S1) was grown in LB medium with 100 μg/mL ampicillin and 10 μg/mL gentamicin overnight (~16 h). The culture was diluted 1:10 in fresh LB medium and grown to an OD600 = 0.25 (0.23–0.28) (~0.5 h). Arabinose was added to a final concentration of 4 mg/mL to induce the expression of pJN105-R. Aliquots (2 μL) of compound DMSO stock solution or serial dilution were added to the inner wells (i.e., non-periphery rows) of a 96-well microtiter plate. To six inner wells, DMSO alone (vehicle) was added as a negative control. For agonism assays, BHL was added to six inner wells as a positive control (to achieve 1 mM). For antagonism assays, BHL was added to six inner wells as a positive control and to all of the other sample wells except for the vehicle control wells (to achieve 10 μM ). Subculture (198 μL) was then dispensed into each inner well. To the outer (periphery) wells, 200 μL of water were added to maintain humidity during incubation. Plates were then incubated for 4 h (shaking) at 37 °C.
Scheme S1. Schematic of E. coli reporter plasmids and assay. (A) Representation of plasmids used in the heterologous reporter system. (B) General reporter assay workflow. BioRender used in […]
After the incubation period, the OD600 of each well was measured using a plate reader. Cell dilution plates were prepared by transferring 10 μL from the incubated culture plate wells to a fresh 96-well plate and adding 90 μL of 18 MΩ water to each well. Next, 10 μL aliquots of diluted Beta-Glo® reagent (1:2 with 18 MΩ water) were added to each well of a white 384-well microtiter plate, followed by 10 μL of culture from each well of the dilution plate. The 384-well plate was incubated (without shaking; i.e., static) for 30 min at 30 °C. After incubation, luminescence of each well was measured using a plate reader. To determine levels of RhlR activity, raw luminescence was divided by OD600 to correct for growth variation and then normalized to the negative (0%) and positive (100%) control wells.
Dose-response reporter assay data for compounds in the E. coli RhlR reporter.
Dose-response curves for RhlR antagonism by compounds against 10 μM BHL using the E. coli JLD271 RhlR reporter are provided below. Compound names are indicated on the x-axis of each plot.
All assays performed in triplicate as at least three separate biological replicates. […]

P. aeruginosa PAO1 = assay: Swarming motility assay; type: cell-based, Pseudomonas aeruginosa; details: PAO1 + DMSO = 100%, PAO1 ΔrhlR + vehicle = 0%; for reduction in swarming activity relative to the controls: compound at 500 μM
Description: We next evaluated the ability of the four sulfonyl HLs 39, 43, 59, and 75 capable of inhibiting RhlR in the P. aeruginosa reporter to reduce swarming motility in a wild-type P. aeruginosa strain (PAO1). Swarming is a rapid, group-coordinated movement of a bacterial population across a semisolid surface, linked to increased expression of virulence factors and increased antibiotic resistance and regulated in P. aeruginosa, at least in part, by the Rhl system. The results of these phenotypic assays are shown in Figure (see Methods for protocol). The swarming ability of PAO1 in the presence of vehicle (DMSO) served as a positive control (set to 100%). As a key negative control, we examined the swarming ability of a PAO1 ΔrhlR mutant in the presence of the vehicle and observed […] relative to the positive control (set to 0%).
5 Swarming motility assay data in P. aeruginosa. […] Area of the colony after 42 h incubation was used to calculate swarming activity (see Methods). Positive control = PAO1 treated with vehicle (DMSO, 100%). Negative control = PAO1 ΔrhlR treated with vehicle (0%). Error bars = standard deviation of the means of triplicate samples. (B) Representative images of P. aeruginosa swarming on agar plates used to generate data in panel A.
The motility assay was based in part on a previously reported procedure. P. aeruginosa PAO1 was grown overnight with 500 or 250 μM compound, or vehicle (DMSO), at 37 °C and normalized to OD600 = 0.4. Cells were washed with sterile water twice and resuspended with 500 (39, 43, and 59) or 250 (75) μM fresh compound or vehicle (DMSO), in M8 minimal medium. Cells (5 μL) were spotted in the center of agar plates (100 mm diameter) generated from M8 minimal medium + 1 mM MgSO4 + 0.2% glucose + 0.5% Casamino acids + 0.5% agar. Plates were covered and the cells were grown for 24–48 h at 37 °C prior to imaging (using an iPhone 14 camera). Photographs were analyzed using ImageJ to calculate the area of the swarm and normalized to the area of (P. aeruginosa PAO1 + vehicle) – (P. aeruginosa PDO111 (ΔrhlR) + vehicle).

[1] = IC50, E. coli JLD271 RhlR reporter, against 10 μM BHL

SMILES	fold more potent than 4-bromo BSHL (35) (RhlR; E. coli RhlR reporter IC50)	max. RhlR inhibition (%) (RhlR; E. coli RhlR reporter)	IC50 (RhlR; [1])	reduction in swarming activity relative to the controls (P. aeruginosa PAO1)	IC50 (RhlR; E. coli JLD271 RhlR reporter, against 10 μM BHL)	IC50 (RhlR; read-out: inhibitory potency on average (74, 75 and 18), average over the C4, C5 and C6 ASHLs, E. coli RhlR reporter)	reduction in swarming (P. aeruginosa PAO1; compound at 250 μM)	potency gain (RhlR; 33 vs 16, 43 vs 24, 86 vs 45, E. coli RhlR reporter IC50)	fold lower IC50 value than 3-Cl BSHL (28) (RhlR; E. coli RhlR reporter IC50)
O=C1OCC[C@@H]1NS(=O)(=O)c1cccc(Br)c1 [Compound 39, 3-bromo BSHL]	~6 fold	90%	29.9 µM	60%	–	–	–	–	–
CCCCCS(=O)(=O)N[C@H]1CCOC1=O [Compound 75, C5 ASHL]	–	84%	–	–	20.6 µM	~28 µM	30%	–	–
O=C1OCC[C@@H]1NS(=O)(=O)c1ccc(Cl)c(Cl)c1 [Compound 43, 3,4-di-Cl BSHL]	–	99%	54.3 µM	60%	–	–	–	≤ 40 fold	over 2 fold
O=C1OCC[C@@H]1NS(=O)(=O)c1ccc(F)c(F)c1 [Compound 59, 3,4-di-F BSHL]	–	87%	87.8 µM	60%	–	–	–	–	–
